Measurements reported in patent publication US12104190B2, “Taxadiene synthase TcTS2, encoding nucleotide sequence and use thereof” (AGRICULTURAL GENOMICS INSTITUTE AT SHENZHEN, CHINESE …, priority 2020, dated 2024).

Key:
[1] = test system: Taxus chinensis var. mairei cell line 211; experiment: Content changes of baccatin III and paclitaxel for different treatment times of MeJA (LC-MS); assay type: cell-based; settings: 100 μM MeJA
Procedure: (§1) Taxus chinensis var. mairei cell line 211 were divided into two groups: the experimental group (MeJA+) was soaked with 100 μM methyl jasmonate; the control group (MeJA−) was soaked with 0.05% ethanol solution. The experiments of the two groups were carried out at the same time, and the samples were collected after 0 h, 2 h, 3 h and 4 h respectively, for the analysis of the expression pattern of TcTSs gene and the content of baccatin III and paclitaxel, with three biological replicates.
The metabolites were extracted by the modified Wolfender method. The specific steps include: weighing 100 mg of lyophilized cell powder to place it in a 2 ml centrifuge tube, adding 1.5 ml of extraction buffer (methanol:water=80:20, v/v) and vortexing to suspend it, containing 500 ng/ml dexamethasone as the internal standard, after ultrasonic extraction for 30 min, centrifuging at 14,000 g for 15 min; the supernatant was centrifuged and dried in a vacuum concentrator (LABCONCO), and finally the sample was resuspended in 200 μL methanol solvent (80:20, v/v) for LCMS analysis. Samples were analyzed by LC-MS by using an ACQUITY UPLC I-Class/AB SCIEX (Waters) instrument.
The separation column was Waters (2.1×50 mm; ACQUITY UPLC™ Waters XselectHSS T3); the injection volume was 10 μL, and the flow rate was 0.2 mL/min.
The mobile phase composition: A was 0.1% formic acid methanol; B was 0.1% formic acid water.
The LC separation procedure was as follows: equilibrating with 40% A for 2 min, followed by gradient elution for 10 min to 100% B, maintaining for 2 min, and then returning to 40% A equilibration for 1 min. ESI ion source, positive ion mode. Data acquisition and processing were performed on AB SCIEXAnalyst 1.6.3 software (Applied Biosystems).

TcTS2 gene = experiment: Expression pattern of TcTS2 gene under MeJA stress (qPCR); assay type: cell-based, Taxus chinensis var. mairei; settings: 100 μM MeJA, 4 h, 2^−ΔΔCt, reference TcACTIN1
Procedure: as §1
(§2) EASYspin Plant Total RNA Extraction Kit (Aidlab, Beijing) was used to extract and collect the total RNA of the samples with different treatment times. 1 μg of total RNA of different samples was respectively taken for the synthesis of the first-strand cDNA, using it as the template for real-time fluorescence quantitative PCR. Kit Hifair® III 1st Strand cDNA Synthesis (YEASEN, China) and qPCR fluorescent dye kit Hieff® qPCR SYBR® Green Master Mix (Low Rox Plus) (commercial reagents, purchased from YEASEN, China) were used for the first-strand cDNA synthesis. qPCR experiments were performed on the QuantStudio™ 3 system with 2 technical replicates and 3 biological replicates. Actin1 (TcACTIN1) gene of Taxus chinensis var. mairei was used as an internal reference gene, and the relative expression of TcTSs genes was calculated by using the 2^−ΔΔCt method.

TcTS1 gene = experiment: Expression pattern of TcTS1 gene under MeJA stress (qPCR); assay type: cell-based, Taxus chinensis var. mairei; settings: 100 μM MeJA, 0-4 h, 2^−ΔΔCt, reference TcACTIN1
Procedure: as §1, §2

[2] = Kinetic constants of TcTSs-His6 ([1-3H]-GGPP, liquid scintillation counting); assay type: biochemical, Taxus chinensis var. mairei
Procedure: Kinetic parameter detection: standard enzymatic reaction with a total volume of 100 μL, containing enzyme reaction buffer (25 mM, pH 8.5, 10% glycerol, 5 mM DTT, 5 mM ascorbate, 5 mM sodium metabisulfite and 1 mM MgCl2), 34 μg (TcTS1-His6) or 18 μg (TcTS2-His6) recombinant protein, and […] concentrations of GGPP (0.2 μM, 0.5 μM, 1 μM, 2.5 μM, 5 μM, 10 μM, 25 μM, 50 μM) mixed with […] substrate (American Radiolabeled Chemicals, Inc, 30 Ci/mM).
Labeled [1-3H]-GGPP was diluted 400-fold with unlabeled GGPP (Sigma, 1 mg/mL). The reaction mixture was reacted at 32° C. for 30 min, then quenching with 100 μL of stop buffer (containing IM EDTA and 4M NaOH) for 10 min; the reaction mixture was extracted with 800 μL of n-hexane (vortexing for 2 min, centrifuging at 12,000 rpm for 10 min); 400 μL of n-hexane extract was taken to add into 2 mL of liquid scintillation cocktail to mix well. The total radioactivity of the reaction products was determined by using a liquid scintillation counter (Tri-Carb 2910TR, Perkin Elmer). Kinetic constants were calculated by nonlinear regression fitting of Michaelis-Menten equation through Origin 8.6 software.

[3] = In vitro activity of TcTSs-His6 (GC-MS of enzymatic reaction product); assay type: biochemical, Taxus chinensis var. mairei; settings: 100 μg purified protein, 100 μM GGPP, 32° C., 2 h
Procedure: The in vitro enzymatic reaction system was 500 μL, containing 100 μg purified protein, 100 μM GGPP (Sigma-Aldrich) and enzyme reaction buffer (25 mM, pH 8.5, 10% glycerol, 5 mM DTT, 5 mM ascorbate, 5 mM sodium metabisulfite and 1 mM MgCl2), the reaction mixture was covered with 500 μL of pentane (Macklin, GC-MS grade) and reacted in a 32° C. water bath for 2 h, vortexing for 2 min, centrifuging at 5000 rpm for 10 min; the pentane layer was taken out, putting into 2 mL of the sample, concentrating at low temperature by using a nitrogen blower; the product was analyzed by gas chromatography mass spectrometry (GC-MS) instrument.
The control group was the reaction product of purified recombinant protein TcTSs-His6 after being boiled at 100° C. for 10 min. The GC-MS instrument was Agilent 7890B/7000C (Agilent Technologies, Waldbronn, USA), mass spectrometry detector parameters: 70 eV, helium flow rate 1.2 mL/min, chromatographic column Agilent HP-5 MS (5% phenylmethyl silica, 30 m×250 μm inner diameter, 0.25 μm film thickness), the injection volume is 1-5 μL; the temperature program of the column oven is as follows: 45° C. for 1 min, then 10° C./min gradient increase to 250° C., and remaining at 250° C. for 5 min. […]

[4] = substrate GGPP, 32° C., 30 min, Michaelis-Menten fit

| Molecule | increased fold of baccatin III as compared to the control group ([1]; 2 h) | increased fold of paclitaxel as compared to the control group ([1]; 2 h) | increase fold of baccatin III ([1]; 4 h) | increase fold of paclitaxel ([1]; 4 h) | induction fold of TcTS2 expression relative to 0 h (TcTS2 gene) | expression of TcTS1 under MeJA stress (TcTS1 gene) | catalytic efficiency relative to TcTS1-His6 (Kcat value) ([2]; from Kcat values) | Ka [2, 4] | Kcat [2, 4] | main products taxa-4 (5), 11 (12)-diene (accounting for) [3] | secondary products taxa-4 (20), 11 (12)-diene (accounting for) [3] |
| --- | --- | --- | --- | --- | --- | --- | --- | --- | --- | --- | --- |
| CC/C=C\CC1C(=O)CCC1CC(=O)OC (centres unmarked) [MeJA, methyl jasmonate] | 1.48 times | 9.53 times | 7.01 times | 12.91 times | 7 | up-regulated | – | – | – | – | – |
| TcTS2-His6: taxadiene synthase from Taxus chinensis var. mairei, amino acid sequence SEQ ID NO: 1 (protein, C-terminal His6 tag; Amino acid sequence of Taxadiene Synthase TcTS2) MSSSPTKLATENANAVAESNLIPRLSANYHGDLWHHGVIQTLQTPYQESSSYQERAEELIVKIKDMFKAVEEGAISPSAYDTAWVARVPDGSEKPRFPQALNWLLHNQLQDGSWGLESHFMLSDRLLSTLNSVISLLVWKTGQQQVEQGTLFITENLKLLEGEDELPPDFEIIFPALLQKAKALGMSLPDHDLPFIKSLSVAREARLASYTDNNIPASMLNALEGLEEVIDWDKIMRFQMPCLYSIDLLERLSLVDNIEHLGIGRHFKQEIKVALDYVYRYWSERGIGLGRDSLIPDLNTTALGLRTLRAHGYNVSSEVLNNFKDENGRFFSSLGQTHVELRSMVNLLRASDLAFPDEPLMDDAKIFAEAYLRDALATRISTNTKLFKEIDYAVEYPWHMSIPRLEARSYIDVYDDDYTWQNKTLYRMSNLSNAYCLELAKLDFNIVQSLHQEELKLLTRWWKESGMADINFTRHRVAEVYFSSATFEPEYSSTRIAFTKIGCLQVLFDDMADIFATLDELRDFTEGVKRWDTSLIHKLPDCMQTCFRVWFNLMEEVNNDVSNVQGRDMLNHIRKPWELYFNCYVQEREWLDAGYIPTLEEYLKTYSISVGLGPCTLQPILLMGDIVKDDVVEKVHYPSNLFELVSLSWRLTNDTKTYQAEKARGQQASGIACYMKDNPGSTEEDAIKYICGVVDRALKEACFEYFKPADDVPMSCKSFIFNLRLCVQIFYKFIDGYGIANEEIKDYIRKVYIEPIQV | – | – | – | – | – | – | 3 times | 8.6 ± 1.5 pM/µg/min | 0.00901 s⁻¹ | 94% | 4% |
